# Test system: common house mosquito (Culex pipiens pallens)
# Assay: Common house mosquito larva mortality test in treated water
# Format: in vivo
# Details: 24 h, active ingredient concentration 3.5 ppm in water, last instar larva, after 1 day, read-out: mortality of insects
# Procedure: Each formulation containing the present Compounds […] prepared according to the above-mentioned Formulation examples was diluted with water so that the active ingredient concentration was set to 500 ppm and the testing drug solutions were prepared. The above-mentioned drug solutions 0.7 mL were added to an ion-exchange water 100 mL (an active ingredient concentration: 3.5 ppm). Twenty (20) last instar larva of common house mosquito (Culex pipiens pallens) were released into the solutions and after 1 day, the number of the dead insects was counted. The mortality of insects was calculated by the following equation. Mortality of insects(%)=(Number of dead insects/Number of tested insects)×100 The testing drug solutions to be used in this Test example were prepared by diluting the formulations prepared according to the above-mentioned Formulation examples with an ion-exchange water so that the active ingredient concentration was set to 500 ppm. The above-mentioned drug solutions 0.7 mL were added to an ion-exchange water 100 mL so that the active ingredient concentration was set to 3.5 ppm. Twenty (20) last instar larva of common house mosquito (Culex pipiens pallens) were released into the solutions and after […], the number of the dead insects was counted. The mortality of insects was calculated by the following equation. Mortality of insects(%)=(Number of dead insects/Number of tested insects)×100
row,SMILES,pest or weed control at 3.5 ppm [%]
1,"CCc1ccccc1-c1csc(OCc2c(C)cccc2-n2nnn(C)c2=O)n1 [Compound T125, 2-{[1-(4,5-dihydro-4-methyl-5-oxo-1H-tetrazole-1-yl)-3-methylphenyl-2-yl]methyloxy}-4-(2-ethylphenyl)thiazole]",100
2,"COc1cc(Cl)ccc1-c1csc(OCc2c(C)cccc2-n2nnn(C)c2=O)n1 [Compound T143, 2-{[1-(4,5-dihydro-4-methyl-5-oxo-1H-tetrazole-1-yl)-3-methylphenyl-2-yl]methyloxy}-4-(4-chloro-2-methoxyphenyl)thiazole]",100

# Same assay, conditions: 192 h, active ingredient concentration 3.5 ppm in water, last instar larva, after 8 day, read-out: mortality of insects
row,SMILES,pest or weed control at 3.5 ppm [%]
1,"CCCCCCCc1ccccc1-c1csc(OCc2c(C)cccc2-n2nnn(C)c2=O)n1 [Compound T144, 2-{[1-(4,5-dihydro-4-methyl-5-oxo-1H-tetrazole-1-yl)-3-methylphenyl-2-yl]methyloxy}-4-(2-heptylphenyl)thiazole]",100
2,"Cc1cccc(-n2nnn(C)c2=O)c1COc1nc(-c2ccc(C(C)(C)C)cc2)cs1 [Compound T042, 2-{[1-(4,5-dihydro-4-methyl-5-oxo-1H-tetrazole-1-yl)-3-methylphenyl-2-yl]methyloxy}-4-[4-(1,1-dimethylethyl)phenyl]thiazole]",100
3,"Cc1ccccc1-c1csc(OCc2c(Br)cccc2-n2nnn(C)c2=O)n1 [Compound T091, 2-{[1-(4,5-dihydro-4-methyl-5-oxo-1H-tetrazole-1-yl)-3-bromophenyl-2-yl]methyloxy}-4-(2-methylphenyl)thiazole]",100
4,"CCc1cccc(-n2nnn(C)c2=O)c1COc1nc(-c2ccccc2C)cs1 [Compound T097, 2-{[1-(4,5-dihydro-4-methyl-5-oxo-1H-tetrazole-1-yl)-3-ethylphenyl-2-yl]methyloxy}-4-(2-methylphenyl)thiazole]",100
5,"CCCCCCCc1cccc(-c2csc(OCc3c(C)cccc3-n3nnn(C)c3=O)n2)c1 [Compound T146, 2-{[1-(4,5-dihydro-4-methyl-5-oxo-1H-tetrazole-1-yl)-3-methylphenyl-2-yl]methyloxy}-4-(3-heptylphenyl)thiazole]",100
6,"COc1ccc(C)cc1-c1csc(OCc2c(C)cccc2-n2nnn(C)c2=O)n1 [Compound T148, 2-{[1-(4,5-dihydro-4-methyl-5-oxo-1H-tetrazole-1-yl)-3-methylphenyl-2-yl]methyloxy}-4-(5-methyl-2-methoxyphenyl)thiazole]",100
7,"Cn1nnn(-c2ccc(F)cc2COc2nc(-c3ccc(Br)cc3)cs2)c1=O [Compound T147, 2-{[1-(4,5-dihydro-4-methyl-5-oxo-1H-tetrazole-1-yl)-4-fluorophenyl-2-yl]methyloxy}-4-(4-bromophenyl)thiazole]",100

# Test system: cabbage moth (Plutella xylostella)
# Assay: Cabbage moth mortality test on sprayed cabbage
# Format: in vivo
# Details: 500 ppm, 20 mL/cup sprayed on cabbage, three instar larval stages, after 5 days
# Procedure: The testing drug solutions to be used in this Test example were prepared by diluting the formulations prepared according to the above-mentioned Formulation examples with an ion-exchange water so that the active ingredient concentration was set to 500 ppm. Cabbage (green ball) was planted in a polyethylene cup and was grown until the third true leaf or the fourth true leaf was developed. To the cabbage (Brassicae oleracea) was sprayed the above-mentioned testing solutions in a ratio of 20 mL/cup. After the drug solutions were dried, to a polyethylene cup (diameter 5.5 cm) covered with a filter paper on the bottom, the cabbage cut out from the root was installed and five heads of cabbage moth (Plutella xylostella) at the three instar larval stages were released into the cup and the cup was covered with the lid. The cup was held at 25° C. and after 5 days, the number of the surviving insects was counted and the mortality of insects was calculated by the following equation. Mortality of insects(%)=(Number of dead insects/Number of tested insects)×100
row,SMILES,mortality of insects [%]
1,"Cc1cccc(-n2nnn(C)c2=O)c1COc1nc(-c2ccc(C(C)(C)C)cc2)cs1 [Compound T042, 2-{[1-(4,5-dihydro-4-methyl-5-oxo-1H-tetrazole-1-yl)-3-methylphenyl-2-yl]methyloxy}-4-[4-(1,1-dimethylethyl)phenyl]thiazole]",80
2,"CCCCc1ccc(-c2csc(OCc3c(C)cccc3-n3nnn(C)c3=O)n2)cc1 [Compound T041, 2-{[1-(4,5-dihydro-4-methyl-5-oxo-1H-tetrazole-1-yl)-3-methylphenyl-2-yl]methyloxy}-4-(4-butylphenyl)thiazole]",80
3,"CCc1ccccc1-c1csc(OCc2c(C)cccc2-n2nnn(C)c2=O)n1 [Compound T125, 2-{[1-(4,5-dihydro-4-methyl-5-oxo-1H-tetrazole-1-yl)-3-methylphenyl-2-yl]methyloxy}-4-(2-ethylphenyl)thiazole]",80
4,"Cc1ccccc1-c1csc(OCc2c(Br)cccc2-n2nnn(C)c2=O)n1 [Compound T091, 2-{[1-(4,5-dihydro-4-methyl-5-oxo-1H-tetrazole-1-yl)-3-bromophenyl-2-yl]methyloxy}-4-(2-methylphenyl)thiazole]",80
5,"Cc1cccc(-n2nnn(C)c2=O)c1COc1nc(-c2ccc(Br)cc2F)cs1 [Compound T034, 2-{[1-(4,5-dihydro-4-methyl-5-oxo-1H-tetrazole-1-yl)-3-methylphenyl-2-yl]methyloxy}-4-(4-bromo-2-fluorophenyl)thiazole]",80
6,"Cc1cccc(-n2nnn(C)c2=O)c1COc1nc(-c2cccc(Br)c2)cs1 [Compound T145, 2-{[1-(4,5-dihydro-4-methyl-5-oxo-1H-tetrazole-1-yl)-3-methylphenyl-2-yl]methyloxy}-4-(3-bromophenyl)thiazole]",80
7,"Cc1cccc(-n2nnn(C)c2=O)c1COc1nc(-c2c(F)c(F)c(F)c(F)c2F)cs1 [Compound T036, 2-{[1-(4,5-dihydro-4-methyl-5-oxo-1H-tetrazole-1-yl)-3-methylphenyl-2-yl]methyloxy}-4-(2,3,4,5,6-pentafluorophenyl)thiazole]",80

# Test system: housefly (Musca domestica)
# Assay: Housefly mortality test on treated filter paper
# Format: in vivo
# Details: 500 ppm solution 0.7 mL on filter paper, female adult, after 24 hours
# Procedure: Each formulation containing the present Compounds […] prepared according to the above-mentioned Formulation examples was diluted with water so that the active ingredient concentration was set to 500 ppm and the testing drug solutions were prepared. […] Ten (10) individuals of female adult housefly (Musca domestica) was released into the polyethylene cup and the cup was covered with the lid. After 24 hours, the number of the dead insects was counted. The mortality of insects was calculated by the following equation. Mortality of insects(%)=(Number of dead insects/Number of tested insects)×100
row,SMILES,mortality of insects [%]
1,"Cc1cccc(-n2nnn(C)c2=O)c1COc1nc(-c2ccc(I)cc2)cs1 [Compound T033, 2-{[1-(4,5-dihydro-4-methyl-5-oxo-1H-tetrazole-1-yl)-3-methylphenyl-2-yl]methyloxy}-4-(4-iodophenyl)thiazole]",100
2,"Cc1ccc(-c2csc(OCc3c(C)cccc3-n3nnn(C)c3=O)n2)cc1 [Compound T039, 2-{[1-(4,5-dihydro-4-methyl-5-oxo-1H-tetrazole-1-yl)-3-methylphenyl-2-yl]methyloxy}-4-(4-methylphenyl)thiazole]",100
